From patent US10952434B2, “Compositions and methods for attracting insects” (The United States of America, as Represented by the …, priority 2016, dated 2021)

Legend:
female Aedes aegypti [1] = assay: Flight tunnel mosquito bioassay; type: in vivo; conditions: for fed (mean of triplicates) / probed (mean of triplicates): paired with control; for feeding attraction, in words: three different concentrations
Experimental: Mosquitoes: Aedes aegypti (Liverpool) were reared in an insectary using standard rearing procedures. Approximately 50 larvae were reared in plastic cups (13×7×7.5 cm) at 27±1° C., and were fed ground up fish pellets. Adults were contained in plastic cartons covered by nylon screening and were fed using cotton pads soaked in a 10% glucose solution. Prior to blood feeding, 20 adult females, approximately 6 to 8 days old, were aspirated out of the rearing cartons and placed in to a stock cage (20×20×20 cm). Flight Tunnel Mosquito Bioassay: The assay system consists of a six well reservoir placed at the upwind end of a flight tunnel ([…]). Temperature and humidity of the flight tunnel were maintained at rearing conditions as described above. Air was constantly pushed through the flight tunnel at a wind speed of 35 ft/min. The four center wells of the six well reservoir were utilized in these bioassays. One of the 3 cm×4 cm wells contained 6 ml of citrate-phosphate-dextrose-adenine (CPDA) solution and three wells contained 6 ml of CPDA solution supplemented with adenosine triphosphate (ATP) (Sigma Chemical Co., St. Louis, Mo.). A constant-temperature water circulator warmed the reservoir to 38° C. A collagen membrane (Devro, Sandy Run, S.C.) was placed over the wells and secured to the reservoir with a light coat of high-vacuum grease (Dow Corning Corp., Midland, Mich.). The membranes were replaced after each replicate observation and additional substrate was added as needed. The reservoir and CPDA solution was used for one replicate. Twenty mosquitoes were aspirated into a cylindrical release canister (20.5 mm×7 mm) containing a mesh screen on one end and a damper on the opposite end (Precision Plastics, Inc., Beltsville, Md.). Mosquitoes were allowed to acclimate in the canister for ten minutes and then were utilized in bioassays. The canister was placed downwind of the reservoir in the flight tunnel. Human breath was introduced in a plume into the tunnel for one minute prior to opening of the release canister. Mosquitoes were then released into the flight tunnel where the number of mosquitoes biting (proboscis inserted through the membrane) within each cell during the 10-min exposure was recorded. The solution in each well consisted of either CPDA in deionized water or one of the three experimental solutions, 10^−2M, 10^−3 M, or 10^−4 M ATP with CPDA, each marked with a randomly assigned food dye color (Betty Crocker). The position of each colored solution in the reservoir was also randomized. Mosquitoes were used once in a test and then aspirated for determination of engorgement. Several attractant candidates were compared one on one with each other, and with CO2 in the flight tunnel to evaluate efficacy.

female Aedes aegypti [2] = assay: K&D module high-throughput feeding assay; type: in vivo; conditions: for mean fed / mean probed: five females/cell
Experimental: Highthrouhput Feeding Assay: The K&D module was developed at USDA for evaluating feeding deterrence and toxicity of candidate topical repellents against hemophagus arthropod vectors (Klun, J. A., and M. Debboun, J. Med. Entomol., 37: 177-181 (2000)). In the present study the K&D module was used as a highthrouhput screening tool to evaluate response of Ae. aegypti to attractant\feeding stimuli.
In vitro bioassays were conducted as described by Klun et. al., 2000. […] The three treatments were randomly assigned to consecutive cells in 2,6-cell reservoirs connected in series to a single water-bath pump; thus, 4 replicates could be tested/run.
Tests were performed in an Air Science USA hood, with an air movement velocity of approx. 110-120 ft./min., temperature of 25-27° C., and RH of 15-25%. A six-celled reservoir was connected to and heated by a constant-temperature (38° C.) water circulator (Lauda E100, Wobser GMGH and Co., Konigshofell, Germany).
Prior to each test, the upper surface of each reservoir was coated with a thin layer of high-vacuum silicone grease (Dow Corning Corp., Midland, Mich.), and the cells then filled (approx. 6 ml. capacity) or topped-off with the following: (1) expired human red blood cells suspended in citrate-phosphate-dextrose-adenine (CPDA) solution, not more than 1 month past expiration date, and to which 110 mg ATP/35 ml. blood-CPDA had been added on the day of testing; or (2) CPDA+ATP×10^−3, usually made up or diluted to 10^−3 ATP on the day of testing.
The filled cells were then covered with an Edicol collagen membrane strip (Devro, Sandy Run, S.C.), and then with a just-treated (110 μl of 4.54 nmol/μl treatment or control solution) organdy cloth strip (G Street Fabrics, Rockville, Md.).
Mosquitoes used in the tests were either Aedes aegypti (Liverpool) or Aedes albopictus (Asian Tiger mosquitoes (ATMs)). Ae. aegypti and Ae. albopictus were originally obtained from colonies at the Walter Reed Army Institute of Research (WRAIR), Silver Spring, Md., and were maintained in colonies at the Beltsville Agricultural Research Center, USDA, ARS, Beltsville, Md. The larvae were reared (Gerber, E. J., et al., Manual for mosquito rearing and experimental techniques, Am. Mosq. Control Assoc. Bull. 5 (revised), AMCA, Inc., Lake Charles, La. (1994)) by feeding larvae ground tropical fish pellets (Hikari Cichlid Gold Fish Food, Kamihata Fish Ind. Ltd., Himeji, Japan, www.hikari.info). Adults were held at 12:12 h (light:dark) photoperiod at 26° C. and 50% RH, and fed with a cotton pad moistened with 10% aqueous sucrose solution. For both species, adult mosquitoes used in the tests were between 5-10 days old, and were kept on water pads only for 24 hrs. prior to testing. Ae. aegypti used in a given test session were all loaded into K&D modules at one time, with five adult females/cell, and tested within I-2 hrs.
K&D modules containing five adult females/cell were placed over a Teflon separator atop each reservoir; the sliding floors opened allowing access to the treated organdy cloth and membrane-covered cell, and the number of mosquitoes biting (proboscis inserted through the cloth) and/or observed to be engorged within each cell at the end of a 3-5 min. exposure period was recorded. Mosquitoes were used only once in a test, and then frozen and discarded.
Only tests in which three or more females fed in the control cell were analyzed, as lower feeding rates are indicative of substandard feeding readiness of that group of mosquitoes.
Feeding/probing responses observed on control, standard, and experimental compound-treated cells were compared using an R-code statistical analysis (Chauhan, K. R., et al., Journal of Medical Entomology, 42: 643-646 (2005)).

Ae. aegypti = assay: Attract and kill bait evaluation in bucket; type: in vivo, Aedes aegypti; conditions: sugar gel containing pyriproxyfen spiked with 5 ml of Okoumal
Excerpt: Attract and Kill Bait Evaluation: The assay system consists of a 1L plastic bucket covered with screened lid. A divider was placed to separate attract and kill bait from the control feeding. 50 Adult mosquitoes used in tests were between 5-10 days old, and were kept on water pads only for 24 hrs. prior to testing. Ae. aegypti used in each test session were all loaded into plastic bucket with attract and kill bait and control feeding formulation made with agarose gel containing sugar and color. In the preliminary semi-field trial, baits were charged with attractant candidates and deployed in to the either hut or tents. In one experiment 30 adult female Aedes aegypti mosquitoes were released, while in another trial at different location 20 adult female Aedes aegypti mosquitoes were released and observed for the attraction or attract-kill effect of the candidates. To incorporate invented field stable and long lasting attractants in the baits various putative devices were constructed and few of these attract and kill bait formulations were evaluated in the insectary and semi-field conditions. Data analysis: Attraction assay data were analyzed using the Wilcoxon two-sample test (PROC NPAR1WAY, SAS 1999) to examine the difference between the numbers of mosquitoes in control from treated baits. […]

[3] = tested on: host seeking Aedes albopictus females; assay: Field study with BG Sentinel traps in yards; type: in vivo; conditions: BG Sentinel trap with attractant lure, 24 hr periods, 10 yards; control 3-4
Experimental: In field studies, Okoumal (1) was evaluated as an attractant for host seeking Aedes albopictus females in the BG Sentinel traps placed in different areas (yards). In the before and after control intervention evaluation, one standard BG Sentinel mosquito trap was placed in each of the 10 yards and mosquitoes were trapped for 24 hr periods in ten replicates. The first five replicates were before adding Okoumal attractant as intervention. The second set of five replicates included additional lure to the BG Sentinel trap. The traps with attractant lures collected more mean mosquitoes per trap per day (6-7 vs 3-4 mosquitoes), compared to control.

[4] = tested on: Aedes albopictus, Ae. triseratus, and Ae. japonicus; assay: Field study with oviposition cups; type: in vivo; conditions: 0 to 1% in oviposition cups, forested area, retrieved after 10 days
Experimental: In the second field study different concentrations (0 to 1%) of Okoumal (1) were added to oviposition cups. Oviposition cups were placed in forested area that has known populations of Aedes albopictus, Ae. triseratus, and Ae. japonicus. Ovicups were retrieved after 10 days and accessed for the presence of mosquito eggs of different species.

mosquitoes = conditions: compared with matching control traps baited with CO2; cited from earlier work
[5] = 0.1% concentration, paired with CO2 (dry ice) + air
[6] = 1% concentration, paired with CO2 (dry ice) + air
[7] = CO2 (dry ice) + air paired with 0.1% Okoumal
[8] = CO2 (dry ice) + air paired with 0.1% cyclopentanone
[9] = CO2 (dry ice) + air paired with 1% Okoumal
[10] = CO2 (dry ice) + air paired with 1% cyclopentanone
[11] = CO2 (dry ice) + air paired with air

Compound	fed (mean of triplicates) (female Aedes aegypti [1]; 1.00% concentration)	probed (mean of triplicates) (female Aedes aegypti [1]; 1.00% concentration)	fed (mean of triplicates) (female Aedes aegypti [1]; 5% concentration)	probed (mean of triplicates) (female Aedes aegypti [1]; 5% concentration)	fed (mean of triplicates) (female Aedes aegypti [1]; 0.10% concentration)	probed (mean of triplicates) (female Aedes aegypti [1]; 0.10% concentration)	feeding attraction, in words (female Aedes aegypti [1])	other results
CC1COC2(CCCC2)O1 (centres unmarked) [Compound I-95]	3.3	12	3.3	8.3				
C1CCC2(C1)OCCO2 [Compound I-90]	4	8.3	3	8.7	2.7	5.7	consistent feeding attraction	
CC1COC(C)(c2ccc3c(c2)C(C)(C)CCC3(C)C)O1 (centres unmarked) [Okoumal]	2.8	9.7	2.3	13.3	3.3	18.3	consistent feeding attraction	mean fed (female Aedes aegypti [2]; 0.1% concentration): 3.6; mean probed (female Aedes aegypti [2]; 0.1% concentration): 3.3; mean fed (female Aedes aegypti [2]; 0.25% concentration): 2.8; mean probed (female Aedes aegypti [2]; 0.25% concentration): 3; mean fed (female Aedes aegypti [2]; 1% concentration): 3.5; mean probed (female Aedes aegypti [2]; 1% concentration): 3.9; mean fed (female Aedes aegypti [2]; 5% concentration): 2.8; mean probed (female Aedes aegypti [2]; 5% concentration): 2.9; feeding compared with control, in words (female Aedes aegypti [2]; four different concentrations, twenty replicates): consistent feeding on par with either control or better; mean fed (female Aedes aegypti [1]; [5]): 3.9; mean probed (female Aedes aegypti [1]; [5]): 3.6; mean fed (female Aedes aegypti [1]; [6]): 3.8; mean probed (female Aedes aegypti [1]; [6]): 4.1; feeding (host seeking) preference, in words (female Aedes aegypti [1]; compared with CO2 and cyclopentanone, host seeking female mosquitoes): consistent feeding (host seeking) preference; mosquitoes in the bucket preferring feeding on treated gel over control sugar gel (Ae. aegypti): 90%; mean mosquitoes per trap per day [3]: 6-7 mosquitoes; effect on numbers of oviposited eggs, in words [4]: significant effect of Okoumal concentration on numbers of oviposited eggs
COC1(OC)CCCC1 [Compound I-152]	0.7	1.3	1	1.7				
O=C1CCCC1 [cyclopentanone, reference compound]	2	5.7	1	1.7	3	7		mean fed (female Aedes aegypti [1]; [5]): 2.6; mean probed (female Aedes aegypti [1]; [5]): 2.2; mean fed (female Aedes aegypti [1]; [6]): 2.1; mean probed (female Aedes aegypti [1]; [6]): 2.8; attractiveness of baited traps, in words (mosquitoes): equivalent to that of matching control traps baited with CO2
O=C1CCCCC1 [cyclohexanone, reference compound]	0.3	0.7	1.7	3.7				
CC1COC2(CCCCC2)O1 (centres unmarked) [Compound I-96]	2.7	8.3	2.7	12.7	3	6.3	consistent feeding attraction	
CCN(CC)C(=O)c1cccc(C)c1 [Deet, reference compound]								mean fed (female Aedes aegypti [2]; Deet standard (4.54 nmol/μl)): 0.1; mean probed (female Aedes aegypti [2]; Deet standard (4.54 nmol/μl)): 0.1
COC1(OC)CCCCC1 [Compound I-182]	2.7	5.7	2	12.3				
O=C=O [CO2 (dry ice), Carbon dioxide, reference compound]								mean fed (female Aedes aegypti [1]; [7]): 3; mean probed (female Aedes aegypti [1]; [7]): 3.7; mean fed (female Aedes aegypti [1]; [8]): 2.8; mean probed (female Aedes aegypti [1]; [8]): 3.1; mean fed (female Aedes aegypti [1]; [9]): 2; mean probed (female Aedes aegypti [1]; [9]): 2.2; mean fed (female Aedes aegypti [1]; [10]): 2.1; mean probed (female Aedes aegypti [1]; [10]): 2.3; mean fed (female Aedes aegypti [1]; [11]): 1.8; mean probed (female Aedes aegypti [1]; [11]): 2.1
